Test results reported in patent US9945841B2, “Cell cycle measuring method based on an electrochemical method” (INDUSTRY-UNIVERSITY COOPERATION FOUNDATION SOGANG UNIVERSITY, priority 2011, dated 2018).

What was measured:
Format in all cases: cell-based, rat
[1] = system: phosphohistone (p-HH^3); experiment: Western blot of synchronized PC12 cells, G2/M-phase specific protein p-HH3; settings: Western blot of G1/S- or G2/M-blocked PC12 cells (FIG. 3d)
Protocol: (§1) The cell-immobilized electrode was treated with 2 mM thymidine in culture medium (RPMI 1640) for 18 hrs, followed by an 8 hrs release (replaced by fresh medium), and then again with 2 mM thymidine for another 18 hrs to block cells in G1/S-phase (FIG. 1c). Similarly, another cell-immobilized electrode was treated initially with 2 mM thymidine as mentioned before for 18 hrs, followed by a 4 hrs release (replaced by fresh medium), and then with 100 ng/ml of nocodazole for another 10 h to block cells in G2/M-phase (FIG. 1c). Therefore, the working electrodes were prepared for electrochemical signal analysis of the cells in different phases of the cell cycle. Furthermore, for the time-dependent progression of G1/S-phase towards G2/M-phase, G1/S-blocked cells were released in fresh medium containing 10% FBS for several hours to perform electrochemical measurements. The synchronized PC12 cell pellet was solubilized for 15 min at 4° C. in lysis buffer. Lysates were centrifuged at 13,000 g for 30 min at 4° C. in order to remove insoluble material. The supernatant was then collected, and the protein concentration was determined using BCA protein assay reagent (Pierce Chemicals). […]

[2] = system: PC12 cells; experiment: FACS cell-cycle distribution of on-chip synchronized cells; settings: 2 mM thymidine 18 hrs
Protocol: (§2) A silicon-based gold electrode was first cleaned with freshly prepared piranha solution (1:3 mixture of 30% H2O2 and concentrated H2SO4) for 5 min and then rinsed thoroughly with double-distilled water. The electrode was then carefully polished by sonication in absolute alcohol and double-distilled water for 5 min. Finally, the electrode was electrochemically cleaned in 0.5 M H2SO4 until a stable cyclic voltammogram was obtained and then dried with purified nitrogen. After the pretreatment, a well ordered oligopeptide (RGD-MAP-C) was fabricated on the freshly cleaned gold electrode as reported in our previous work (15). For the electrochemical measurements, a 2 cm×1 cm×0.5 cm (width×length×height) cell chip chamber was fabricated by fixing a plastic chamber (Lab-Tek®, Thermo fisher scientific, USA) to the Au working electrode using PDMS (Polydimethylsiloxane). Afterward, rat pheochromocytoma (PC12) cells were seeded on the electrode at a density of 2×10^5 cells/chip and then immobilized via RGD-integrin interaction for 24 hrs in a standard cell culture environment. The cell-immobilized electrode was treated with 2 mM thymidine in culture medium (RPMI 1640) for 18 hrs, followed by an 8 hrs release (replaced by fresh medium), and then again with 2 mM thymidine for another 18 hrs to block cells in G1/S-phase (FIG. 1c). […]

[3] = system: PC12 cells; experiment: Differential pulse voltammetry (DPV) of cells on Au/RGD-MAP-C cell chip; settings: PC12 cells on Au electrode; double thymidine block; PBS 0.01 M pH 7.4; vs Ag/AgCl (FIG. 2b)
Protocol: as §2

[4] = system: cyclin B1; experiment: Western blot of synchronized PC12 cells, cyclin B1; settings: Western blot of G1/S- or G2/M-blocked PC12 cells (FIG. 3d)
Protocol: as §1

| SMILES | p-HH^3 expression [1] | cells synchronized in G2/M-phase ([2]; 4 hrs release, 100 ng/ml nocodazole 10 h, FACS (FIG. 3c)) [%] | DPV peak potential of G1/S-phase blocked cells [3] | cells fixed in G1/S-phase ([2]; 8 hrs release, FACS (FIG. 3b)) | cyclin B1 expression [4] |
| --- | --- | --- | --- | --- | --- |
| COC(=O)Nc1nc2ccc(C(=O)c3cccs3)cc2[nH]1 [nocodazole] | expressed | ~72 |  |  |  |
| Cc1cn([C@H]2C[C@H](O)[C@@H](CO)O2)c(=O)[nH]c1=O [thymidine, Thymidine] | absent |  | +50 mV | Approximately 75% | expressed dominantly |
